Read-outs that look alike come from different tables or passages of the source.
How the values were obtained:
[1] = biological target: VEGFR2, unphosphorylated (Homo sapiens (Human), UniProt P35968); assay: VEGFR ADP GLO Assay; format: biochemical
Protocol: (§1) II. Methods and Procedures
Assay buffer stock contains 50 mM HEPES pH7.5, 10 mM MgCl2, 0.01% Brij-35, and 1 mM EGTA.
Unphosphorylated VEGFR2. […] Store at −80° C. in aliquots.
Sonicate 10 mg/ml Srctide solution for 10 minutes and then vacuum filter.
Freshly Prepared Solutions
2× kinase solution. Make a working solution of 10 nM unphosphorylated VEGFR2 in Assay buffer. Vacuum filter 2× kinase solution prior to running assay. Keep on ice until use.
2× substrate/ATP solution. Make a working solution of 2 mg/mL srctide and 2.4 mM ATP in Assay buffer. Keep on ice until use.
Step 1. Dispensing inhibitors/controls: Using Echo, dispense 10 nL/well compound serial dilutions in DMSO to columns 1-22 (in 384-well plates) or columns 1-44 (in 1536-well plates). Dilution series=11 pt, 3-fold dilutions. The top compound concentration in the source plate is 4 mM. The top compound concentration in the assay plate is 10 uM. Using Echo, dispense 10 nl/well DMSO to column 23 (in 384-well plates) or columns 45-47 (in 1536-well plates). […] These wells will serve as positive control wells.
Step 2. Pre-incubation of inhibitors with kinase: Add 2 μL/well 2× kinase solution. Centrifuge at 1000 rpm for 1 min. Incubate at room temperature for 30 min.
Step 3. Kinase cascade reaction: Add 2 μL/well 2× substrate/ATP solution to initiate kinase reactions. Centrifuge at 1000 rpm for 1 min. Incubate at room temperature for 180 min.
Final concentrations of components in the assay:
Step 4. Quench: Add 2 uL/well ADP Glo Reagent+0.05% CHAPS. Centrifuge at 1000 rpm for 1 min; Incubate at room temperature for one hour.
Step 5. Detection: Add 2 uL/well Kinase Detection Reagent+0.05% CHAPS. Centrifuge at 1000 rpm for 1 min; Incubate at room temperature for 1 hour; Read Luminescence on a plate reader.
(§2) III. Calculations and Formulas
IC50 values are determined from a 4-parameter fit, using the following equation: Y=Bottom+(Top−Bottom)/(1+10^(Log IC50-X)*Hill slope) where X=log10 of the compound concentration; top can be defined by PC; bottom defined by NC.

[2] = biological target: PDGFRβ (Rattus norvegicus (Rat), UniProt Q05030); assay: PDGFRβ Cellular Assay (PDGFRb P-Y751 HTRF in A10 cells stimulated with PDGF-BB); format: cell-based
Chain of PDGFRβ (Q05030 32-1097): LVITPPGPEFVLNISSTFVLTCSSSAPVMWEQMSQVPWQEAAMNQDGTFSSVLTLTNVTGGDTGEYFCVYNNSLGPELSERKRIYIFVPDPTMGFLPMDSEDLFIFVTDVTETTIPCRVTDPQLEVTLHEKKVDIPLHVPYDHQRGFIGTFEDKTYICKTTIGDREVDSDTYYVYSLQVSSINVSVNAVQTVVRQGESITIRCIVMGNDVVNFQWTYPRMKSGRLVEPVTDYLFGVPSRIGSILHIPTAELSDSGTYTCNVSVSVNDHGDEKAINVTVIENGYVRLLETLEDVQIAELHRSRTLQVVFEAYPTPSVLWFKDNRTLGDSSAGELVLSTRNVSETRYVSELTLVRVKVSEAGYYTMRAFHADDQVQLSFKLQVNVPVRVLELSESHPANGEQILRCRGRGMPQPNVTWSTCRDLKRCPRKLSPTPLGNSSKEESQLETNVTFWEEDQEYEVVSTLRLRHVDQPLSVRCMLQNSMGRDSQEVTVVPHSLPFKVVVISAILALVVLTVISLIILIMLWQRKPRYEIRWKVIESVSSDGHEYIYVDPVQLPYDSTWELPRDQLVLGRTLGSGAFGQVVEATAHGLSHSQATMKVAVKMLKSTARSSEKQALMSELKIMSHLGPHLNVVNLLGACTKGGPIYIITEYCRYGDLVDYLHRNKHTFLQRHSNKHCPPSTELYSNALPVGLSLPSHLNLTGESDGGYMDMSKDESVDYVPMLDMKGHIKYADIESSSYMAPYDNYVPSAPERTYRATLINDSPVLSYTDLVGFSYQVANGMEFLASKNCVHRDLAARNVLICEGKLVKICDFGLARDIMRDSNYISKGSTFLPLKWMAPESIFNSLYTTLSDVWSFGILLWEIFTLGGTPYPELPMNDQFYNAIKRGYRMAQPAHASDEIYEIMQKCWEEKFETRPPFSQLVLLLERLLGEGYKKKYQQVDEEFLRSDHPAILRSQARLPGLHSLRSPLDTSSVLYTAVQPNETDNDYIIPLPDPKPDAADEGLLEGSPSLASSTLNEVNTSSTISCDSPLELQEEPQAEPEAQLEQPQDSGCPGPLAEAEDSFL
Protocol: as §1
Cell Culture and Preparation: Cells are cultured according to ATCC procedure (5) with the addition of the antibiotic penicillin-streptomycin. If working from frozen, cells should be thawed according to ATCC procedure. Depending on the cell density of frozen vial, cells will need time to recover from thaw. An 80% confluent T75 flask should be enough for one 384 well plate.
Stock Solutions: Rat PDGFBB. A 100 ug/mL stock is prepared by reconstituting 50 ug in 500 uL of 4 mM HCl and 0.1% BSA. It can be stored for a month at 4° C., or aliquoted out and frozen in the −20/−80° C. to avoid multiple free-thaw cycles.
Freshly Prepared Solutions:
1× Cisbio cell lysis buffer. The cell lysis buffer is diluted 4-fold with molecular grade water. The blocking agent is then diluted 25-fold in the diluted lysis buffer.
Antibody solutions. Equal amounts d2 and cryptate antibody are diluted 20-fold in detection buffer.
Rat PDGFBB. A working stock of 100 ng/mL is created from the stock solution in 10% FBS culture media.
Step 1: Plating Cells: Media from the A10 cell flask is aspirated. The cells are rinsed with PBS and then trypsinized to disperse the cell layer. The cells are then pelleted are resuspended to 1.25e5 cells/mL. […] Plates are covered and placed in the incubator (37° C. 5% CO2) overnight to allow cells to adhere.
Step 2: Compound Dispense: Approximately 18 hours after plating, dispense 40 nL compound onto cells using Echo. Column 12 is the neutral control DMSO, column 24 is the inhibitor control 10 mM Imatinib (10 uM final assay concentration). The plate is returned to the incubator for 3 hours.
After 10 minutes the media is removed by flicking the plate.
Step 4: Cell lysis and antibody addition: 20 uL lysis buffer per well is added to the plate via Tempest. 5 uL antibody solution is added per well via the Tempest. The plate is placed on the shaker at 230 rpm for 1 hour at room temperature.
Step 5: Detection: The plate is read using the HTRF module on the BMG Pherastar. Data is analyzed using Genedata Screener.
as §2
% Inhibition: % Inhibition=(NC−sample)/(NC−PC)*100 where NC is the mean of negative control (reactions without inhibitor), and PC is the mean of positive control (10 μM imatinib).
IC50 values are determined from a 4-parameter fit, using the following equation: Y=Bottom+(Top−Bottom)/(1+10((Log IC50−X)*Hill slope)), where X=log10 of the compound concentration; top can be defined by PC; bottom defined by NC.

Chain of VEGFR2, unphosphorylated (P35968 20-1356): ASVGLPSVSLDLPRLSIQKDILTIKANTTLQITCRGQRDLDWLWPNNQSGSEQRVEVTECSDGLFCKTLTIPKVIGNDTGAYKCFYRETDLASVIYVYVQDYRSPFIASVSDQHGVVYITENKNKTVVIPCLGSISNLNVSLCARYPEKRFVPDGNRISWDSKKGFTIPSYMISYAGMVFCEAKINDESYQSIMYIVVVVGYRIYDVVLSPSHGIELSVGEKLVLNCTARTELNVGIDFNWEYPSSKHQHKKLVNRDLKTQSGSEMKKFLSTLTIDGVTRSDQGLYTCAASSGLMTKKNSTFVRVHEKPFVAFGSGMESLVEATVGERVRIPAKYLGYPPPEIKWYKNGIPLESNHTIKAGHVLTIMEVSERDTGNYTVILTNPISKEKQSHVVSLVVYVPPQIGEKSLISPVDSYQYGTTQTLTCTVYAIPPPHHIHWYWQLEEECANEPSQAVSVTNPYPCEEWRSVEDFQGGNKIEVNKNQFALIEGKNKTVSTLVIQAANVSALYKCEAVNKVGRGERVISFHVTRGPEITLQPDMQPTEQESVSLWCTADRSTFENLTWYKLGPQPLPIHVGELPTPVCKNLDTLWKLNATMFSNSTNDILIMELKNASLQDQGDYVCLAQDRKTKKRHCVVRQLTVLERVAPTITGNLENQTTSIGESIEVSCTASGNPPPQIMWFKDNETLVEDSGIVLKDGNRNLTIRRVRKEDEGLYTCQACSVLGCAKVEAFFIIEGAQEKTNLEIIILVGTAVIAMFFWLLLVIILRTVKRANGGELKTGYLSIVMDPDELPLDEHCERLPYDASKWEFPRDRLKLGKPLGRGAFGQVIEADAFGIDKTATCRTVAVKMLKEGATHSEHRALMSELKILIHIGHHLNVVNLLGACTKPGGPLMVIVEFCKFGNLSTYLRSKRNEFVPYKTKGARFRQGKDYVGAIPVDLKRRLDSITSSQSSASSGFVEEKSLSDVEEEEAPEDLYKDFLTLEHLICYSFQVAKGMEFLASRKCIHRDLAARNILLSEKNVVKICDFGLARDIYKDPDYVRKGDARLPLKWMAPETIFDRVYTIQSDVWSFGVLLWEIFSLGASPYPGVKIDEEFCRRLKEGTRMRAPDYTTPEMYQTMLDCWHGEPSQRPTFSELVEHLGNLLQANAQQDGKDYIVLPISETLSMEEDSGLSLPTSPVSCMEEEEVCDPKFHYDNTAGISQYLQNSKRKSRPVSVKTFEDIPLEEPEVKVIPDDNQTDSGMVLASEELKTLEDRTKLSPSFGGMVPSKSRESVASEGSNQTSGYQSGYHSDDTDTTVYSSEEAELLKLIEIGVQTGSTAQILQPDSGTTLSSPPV

Structure (SMILES) | IC50 [1] [nM] | IC50 ([2]; read-out: PDGFR Cellular IC50) [nM] | IC50 ([2]; PDGFR Cellular IC50) [nM]
COc1ncccc1-c1cn2ncc(C(=O)Nc3cc(NC(=O)CN4CC(OC)C4)cnc3C)c2s1 [Example 400, N-(5-(2-(3-methoxyazetidin-1-yl)acetamido)-2-methylpyridin-3-yl)-2-(2-methoxypyridin-3-yl)pyrazolo[5,1-b]thiazole-7-carboxamide] | > 7500 |  | 14.8
COCCn1cc(-c2cn3ncc(C(=O)Nc4cc(NC(=O)CN5CC[C@H](C)C5)cnc4C)c3s2)cn1 (single isomer, unassigned) [Example 328, (S*)-2-(1-(2-methoxyethyl)-1H-pyrazol-4-yl)-N-(2-methyl-5-(2-(3-methylpyrrolidin-1-yl)acetamido)pyridin-3-yl)pyrazolo[5,1-b]thiazole-7-carboxamide] | > 7500 | 7.1 | 
COC1CCN(CC(=O)Nc2cnc(C)c(NC(=O)c3cnn4cc(-c5cn(C)nc5C)sc34)c2)C1 (stereo not drawn) [Example 439, 2-(1,3-Dimethyl-1H-pyrazol-4-yl)-N-(5-(2-(3-methoxypyrrolidin-1-yl)acetamido)-2-methylpyridin-3-yl)pyrazolo[5,1-b]thiazole-7-carboxamide] | > 7500 |  | 12.2
Cc1ncc(NC(=O)CN2CCC[C@H]2C)cc1NC(=O)c1cnn2cc(-c3cn(C)nc3C)sc12 [Example 440, (R)-2-(1,3-dimethyl-1H-pyrazol-4-yl)-N-(2-methyl-5-(2-(2-methylpyrrolidin-1-yl)acetamido)pyridin-3-yl)pyrazolo[5,1-b]thiazole-7-carboxamide] | > 7500 |  | 1.6
Cc1ncc(NC(=O)CN2CCC[C@@H]2C)cc1NC(=O)c1cnn2cc(-c3cn(C)nc3C)sc12 [Example 438, (S)-2-(1,3-dimethyl-1H-pyrazol-4-yl)-N-(2-methyl-5-(2-(2-methylpyrrolidin-1-yl)acetamido)pyridin-3-yl)pyrazolo[5,1-b]thiazole-7-carboxamide] | > 7500 |  | 3.7

More lines, main results first:

IC50 [1] [nM] | IC50 ([2]; read-out: PDGFR Cellular IC50) [nM] | Structure (SMILES) | IC50 ([2]; PDGFR Cellular IC50) [nM]
 | 10.3 | CCOC1CN(CC(=O)Nc2cnc(C)c(NC(=O)c3cnn4cc(-c5cccnc5OC)sc34)c2)C1 [Example 401] | 
> 7500 | 9.9 | COCCn1cc(-c2cn3ncc(C(=O)Nc4cc(NC(=O)CN5CC[C@@H](C)C5)cnc4C)c3s2)cn1 (single isomer, unassigned) [Example 327, (R*)-2-(1-(2-methoxyethyl)-1H-pyrazol-4-yl)-N-(2-methyl-5-(2-(3-methylpyrrolidin-1-yl)acetamido)pyridin-3-yl)pyrazolo[5,1-b]thiazole-7-carboxamide] | 
> 833 | 16 | COc1ncccc1-c1cn2ncc(C(=O)Nc3cc(NC(=O)CN4C[C@H](CO)O[C@@H](C)C4)cnc3C)c2s1 (stereo in doubt) [Example 381, N-(5-(2-(cis-2-(hydroxymethyl)-6-methylmorpholino)acetamido)-2-methylpyridin-3-yl)-2-(2-methoxypyridin-3-yl)pyrazolo[5,1-b]thiazole-7-carboxamide] | 

— US20240109917A1 (ACTELION PHARMACEUTICALS LTD, priority 2020, published 2024)
